The values that follow come from publication PMC4307180, “Overcoming myelosuppression due to synthetic lethal toxicity for FLT3-targeted acute myeloid leukemia therapy” (eLife, 2014).

SMILES strings stand for the structures. Entries after “also recorded” stand apart in the source; their conditions may differ.

Series [1] has as its system zebrafish embryos. The series can be described thus: Zebrafish embryonic development / WT morphology. The series is classed as in vivo, Danio rerio (zebrafish). The conditions noted are these: 3 dpf, drug from 6 hpf. The procedure: (§1) Figure 4. […] (N–P) Three categories of mpo transcription (N, normal; O, intermediate; P, severe) were defined based on the WISH results (three experiments). […] Scale bar equals 500 μm. Blue arrows indicate the pericardial edema, green arrows indicate tail shortening and curving, and red arrows indicate the FLT3-ITD AML mpo+ myeloid cells expansion. […] For all experiments: Zebrafish embryos were collected and kept in standard E3 medium at 28°C. Different concentrations of either drug were added to the E3 medium from 6 hr post fertilization (hpf) to 3 days post fertilization (dpf). Embryos treated with DMSO or 10 μM drug from 6 to 30 hpf were collected for mpo whole mount in situ hybridization (WISH) analysis. […] plasmid DNA containing FLT3/ITD sequence was microinjected into one-cell stage embryos, and the uninjected embryos were used as control. FLT3/ITD-injected embryos were treated with DMSO or 10 μM drug from 6 to 30 hpf.
(§2) Wild-type (WT) zebrafish were maintained under standard conditions, and embryos were staged as described ([He et al., 2014]). The study was approved by the Committee of the Use of Live Animals for Teaching and Research in The University of Hong Kong.

The subject of series [2] is Molm14 cells (FLT3-ITD heterozygous). The series can be described thus: Cell proliferation/viability assay, Molm14. The series is classed as cell-based. Conditions: Homo sapiens, MOLM-14, 48 hr, ± SEM. Here is the method:
(§3) Exponentially growing cells (5 × 10^3 cells per well) were plated in each well of a 96-well plate with 0.1 ml of RPMI 1640 + 10% (vol/vol) FCS containing the appropriate concentration of drug in triplicate, and cell viability was assessed after 48 hr as previously described ([Smith et al., 2012]). […] Log10-scale transformation of ratios, followed by conditional formatting using xcel spreadsheet software yielded the colored diagrams shown.

In series [3] the test system is FLT3/ITD-injected zebrafish embryos. The experiment in a line: Zebrafish FLT3/ITD-induced mpo+ myeloid cell expansion. The conditions noted are these: 10 μM, 6 to 30 hpf, read at 30 hpf. The series is classed as in vivo, Danio rerio (zebrafish). The procedure:
as §1, §2

For series [4], the system named is Ba/F3 FLT3 ITD + D839G. The series can be described thus: Ba/F3 cell viability, FLT3 ITD + D839G. Conditions: Mus musculus, Ba/F3, 48 hr, ± SEM. The series is classed as cell-based. The procedure:
Stable Ba/F3 lines were generated by retroviral spinfection with the appropriate mutated plasmid as previously described ([Smith et al., 2012]).
as §3
Mutations isolated in the screen were engineered into pMSCVpuroFLT3–ITD by QuikChange mutagenesis (Stratagene, La Jolla, CA) as previously described ([Smith et al., 2012]).

For series [5], the system named is mpo+ myeloid cells in zebrafish embryos. The series can be described thus: Zebrafish normal myelopoiesis, mpo WISH in posterior blood island. The series is classed as in vivo, Danio rerio (zebrafish). The conditions noted are these: 10 μM, 6 to 30 hpf, read at 30 hpf, vs DMSO. The procedure:
as §1, §2

The target in series [6] is PDGFRα (Homo sapiens, UniProt P16234). The series can be described thus: Reaction Biology Corp kinase assay at Km-ATP (Figure 1C), PDGFRα.
Sequence of PDGFRα (P16234 24-1089): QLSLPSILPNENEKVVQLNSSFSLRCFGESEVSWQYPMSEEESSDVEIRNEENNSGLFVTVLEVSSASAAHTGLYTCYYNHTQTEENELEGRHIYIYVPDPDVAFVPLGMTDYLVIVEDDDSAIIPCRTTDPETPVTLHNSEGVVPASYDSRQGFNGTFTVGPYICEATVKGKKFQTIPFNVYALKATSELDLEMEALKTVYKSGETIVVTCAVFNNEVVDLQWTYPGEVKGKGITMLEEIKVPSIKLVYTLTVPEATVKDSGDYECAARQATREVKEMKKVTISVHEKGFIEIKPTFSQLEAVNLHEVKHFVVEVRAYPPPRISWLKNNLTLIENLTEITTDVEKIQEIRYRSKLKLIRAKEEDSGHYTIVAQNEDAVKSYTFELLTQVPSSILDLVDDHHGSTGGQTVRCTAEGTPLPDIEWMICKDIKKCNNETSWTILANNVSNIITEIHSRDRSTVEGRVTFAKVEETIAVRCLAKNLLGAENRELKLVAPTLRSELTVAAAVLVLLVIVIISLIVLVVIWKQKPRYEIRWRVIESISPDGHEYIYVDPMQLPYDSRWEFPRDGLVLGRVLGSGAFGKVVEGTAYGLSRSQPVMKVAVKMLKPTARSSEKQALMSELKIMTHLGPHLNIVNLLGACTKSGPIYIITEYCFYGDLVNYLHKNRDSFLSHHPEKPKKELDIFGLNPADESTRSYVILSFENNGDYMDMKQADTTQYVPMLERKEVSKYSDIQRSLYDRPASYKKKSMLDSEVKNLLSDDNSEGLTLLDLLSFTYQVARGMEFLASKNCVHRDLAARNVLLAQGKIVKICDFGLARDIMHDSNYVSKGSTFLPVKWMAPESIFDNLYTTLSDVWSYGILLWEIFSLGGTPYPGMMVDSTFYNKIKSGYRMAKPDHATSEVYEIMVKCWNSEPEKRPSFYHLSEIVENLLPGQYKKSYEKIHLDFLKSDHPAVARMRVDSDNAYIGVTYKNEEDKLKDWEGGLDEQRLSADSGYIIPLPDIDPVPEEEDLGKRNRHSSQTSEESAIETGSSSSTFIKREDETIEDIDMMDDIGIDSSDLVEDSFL

Take `CC1NC(=O)c2c1c1c3ccccc3n(CCCN)c1c1[nH]c3ccccc3c21` (stereo not drawn) [Star 27]: the “effect on zebrafish embryonic development / morphology” value in series [1] is “no change in heart and tail morphology; also recorded: no noticeable morphological defects up to 10 μM”. Further, the figures for the IC50 in series [2], in series [4] and in series [6] were 57 ± 8 nM, 80 ± 41 nM and 931 ± 109 nM, respectively. Besides, the “effect on FLT3/ITD-induced mpo+ myeloid cells expansion” value in series [3] is “rescue of normal phenotype approaching that seen for AC220”. For the same compound, the “effect on mpo+ myeloid cells development in the PBI” value in series [5] is “no statistically significant change; also recorded: non-significant difference”.
